Reference: patent US20240002343A1, “COMPOUNDS HAVING INHIBITORY EFFECT ON MITOCHONDRIAL HYPERFISSION” (KYUSHU UNIVERSITY, NATIONAL UNIVERSITY CORPORATION, priority 2020, published 2024)

Legend:
[1] = tested on: cardiomyocytes derived from neonatal rats; assay: Inhibitory effect on mitochondrial hyperfission by hypoxic stimulation; format: cell-based, rat; conditions: 0.3 μM, 1 hour preincubation, 18 hours hypoxic environment; compared with cilnidipine positive control
Experimental: A system for evaluating quantitatively the degree of mitochondrial division in cells was constructed. Specifically, cardiomyocytes derived from neonatal rats were cultured under either normoxia (20%) or hypoxia (1%) for 16 hours. Subsequently, the cells were stained with a fluorescent dye (MitoTracker Green FM, Thermo Fisher Scientific) that selectively stains mitochondria. Then, the mitochondria were observed under a fluorescence microscope, and the mitochondrial morphology was quantitatively measured by image analysis.
FIGS. 2(a) and (b) are each a micrograph and an image explaining a method for quantitatively measuring mitochondrial morphology by image analysis. FIG. 2(a) is a representative fluorescence micrograph showing the general morphology of mitochondria. FIG. 2(b) is an image obtained by filtering the photograph in FIG. 2(a) and extracting the shape of the mitochondria. Image analysis was performed based on the image in FIG. 2(b) to quantify the lengths of mitochondrial fragments. For the quantification, in order to classify the mitochondria into vesicle-shaped, intermediate-shaped and tube-shaped, <3.5 μm is set for vesicle-shaped, 3.6 μm<length<4.2 μm is set for intermediate-shaped, and >4.2 μm is set for tube-shaped, respectively, as thresholds.
The system for evaluation constructed in Test Example 1 was used to evaluate the mitochondrial hyperfission inhibitory effects of the compounds prepared in Examples.
Specifically, at first, each compound was added to the culture medium of cardiomyocytes derived from neonatal rats at a final concentration of 0.3 μM, and the mixture was incubated for 1 hour.
Then, each cells were cultured for an additional 18 hours in a hypoxic environment. Subsequently, mitochondria were stained with MitoTracker Green FM (Thermo Fisher Scientific) or anti-pyruvate dehydrogenase antibody (Abcam) and observed under a fluorescence microscope to quantitatively measure the morphology of mitochondria. For comparison, a group involving cilnidipine as a positive control and a group involving dimethyl sulfoxide (DMSO) as a negative control were also prepared.

calcium channel = assay: Calcium antagonism (KCl-induced calcium ion influx, Fura 2-AM); format: cell-based, mouse; conditions: Neuro-2a cells; 0, 1, 10, 100 and 1,000 nM, 30 minutes; potassium chloride 60 mM
Experimental: The compounds prepared in Examples were evaluated for calcium channel blocking activity. Specifically, at first, Neuro-2a cells, mouse-derived neuroblastoma cell line, were cultured in a serum-free medium, and Fura 2-AM (Dojindo Laboratories) that is a calcium ion probe, was added to the medium so that it was taken up by the cells.
Subsequently, after replacing the medium with HEPES buffer (pH 7.4), each compound was each added at final concentrations of 0, 1, 10, 100 and 1,000 nM and the mixtures were incubated for 30 minutes.
Then, depolarization stimulation was applied with potassium chloride (final concentration 60 mM), and the influx of calcium ions into the cells was measured by fluorescence microscopy.
FIGS. 4(a) and (b) are graphs that illustrate the results of measurement of increase in intracellular calcium ion concentration induced by potassium chloride stimulation. Δratio on the vertical axis is expressed by formula (F1) below and represents a value that reflects the intracellular calcium ion concentration.
A ratio=(fluorescence intensity at fluorescence wavelength of 510 nm against an excitation wavelength of 340 nm)/(fluorescence intensity at fluorescence wavelength of 510 nm against an excitation wavelength of 380 nm) Formula (F1)

Drp1-filamin complex = conditions: Non-Patent Document 6; cited from earlier work
[2] = tested on: cardiomyocytes derived from neonatal rats; assay: Inhibitory effect on aging of cardiomyocytes under hypoxic stimulation (β-galactosidase, SPiDER-βGAL); format: cell-based, rat; conditions: 1 μM, 1 hour preincubation, 16 hours normoxia (20%) or hypoxia (1%); compared with cilnidipine
Experimental: The compounds prepared in Examples were investigated for effects on the aging of cardiomyocytes. The aging of cardiomyocytes was evaluated by detecting β-galactosidase, one of the aging markers.
Specifically, DOJINDO's cell aging detection kit-SPiDER-βGAL was used for detection according to the attached protocol. Each compound was added to the culture medium of cardiomyocytes derived from neonatal rats at a final concentration of 1 μM and the medium were incubated for 1 hour. Then, the medium was cultured for 16 hours under normoxia (20%) or hypoxia (1%). Subsequently, Bafilomycin A1, which inhibits endogenous β-galactosidase activity, was added and the medium was incubated for 1 hour. After washing the cells with a medium, SPiDER-βGAL was added thereto and the mixture was incubated for 30 minutes. After removing the supernatant, HEPES buffer (pH 7.4) was added thereto and the cells were observed under a fluorescence microscope to detect β-galactosidase in the aging cells. For comparison, a group involving cilnidipine as a positive control and a group involving dimethylsulfoxide (DMSO) as a negative control were prepared.
Arrowheads indicate the β-galactosidase-positive cells.

Row | Compound | mitochondrial hyperfission inhibitory effect (percentage of cells with vesicle-shaped mitochondria) [1] | Ca2+ antagonism (increase in intracellular calcium ion concentration induced by potassium chloride stimulation) (calcium channel) | inhibition of formation of the Drp1-filamin complex (Drp1-filamin complex) | suppressive effect on aging (β-galactosidase-positive cells) [2]
1 | COCCOC(=O)C1=C(C)NC(C)=C(C(=O)Nc2ccc(OC)cc2)C1c1ccccc1 (stereo not drawn) [Compound 16b, 2-Methoxyethyl 5-((4-methoxyphenyl)carbamoyl)-2,6-dimethyl-4-phenyl-1,4-dihydropyridine-3-carboxylate] | the same as or more effect of cilnidipine | no Ca2+ antagonism |  | 
2 | COCCOC(=O)c1c(C)nc(C)c(C(=O)Nc2cccc(C(=O)OC)c2)c1-c1ccccc1 [Compound 26, 2-Methoxyethoxy 5-((3-(methoxycarbonyl)phenyl)carbamoyl)-2,6-dimethyl-4-phenylnicotinate] | the same as or more effect of cilnidipine |  |  | 
3 | COCCOC(=O)C1=C(C)NC(C)=C(C(=O)Nc2cccc(C(=O)OCCC#N)c2)C1c1ccccc1 (stereo not drawn) [Compound 30, 2-Methoxyethyl 5-((3-((2-cyanoethoxy)carbonyl)phenyl)carbamoyl)-2,6-dimethyl-4-phenyl-1,4-dihydropyridine-3-carboxylate] | the same as or more effect of cilnidipine |  |  | 
4 | COCCOC(=O)c1c(C)nc(C)c(C(=O)Nc2cccc(C(=O)OC(C)(C)C)c2)c1-c1ccccc1 [Compound 24, 2-Methoxyethoxy 5-((3-(tert-butoxycarbonylcarbonyl)phenyl)carbamoyl)-2,6-dimethyl-4-phenylnicotinate] | the same as or more effect of cilnidipine |  |  | 
5 | COCCOC(=O)C1=C(C)NC(C)=C(C(=O)OC/C=C/c2ccccc2)C1c1cccc([N+](=O)[O-])c1 (stereo not drawn) [Cilnidipine] |  |  | inhibit formation of the Drp1-filamin complex | 
6 | COCCOC(=O)C1=C(C)NC(C)=C(C(=O)OCCC#N)C1c1cccc([N+](=O)[O-])c1 (stereo not drawn) [Compound 18, 3-(2-cyanoethyl) 5-(2-methoxyethyl) 2,6-dimethyl-4-(3-nitrophenyl)-1,4-dihydropyridine-3,5-dicarboxylate] | the same as or more effect of cilnidipine | no Ca2+ antagonism |  | 
7 | COCCOC(=O)c1c(C)nc(C)c2c(=O)n(-c3cccc(C(=O)OC(C)(C)C)c3)c3ccccc3c12 [Compound 17c, 2-Methoxyethyl 6-(3-(tert-butoxycarbonyl)phenyl)-2,4-dimethyl-5-oxo-5,6-dihydrobenzo[c][2,7]naphthyridine-1-carboxylate] | the same as or more effect of cilnidipine |  |  | 
8 | COCCOC(=O)c1c(C)nc(C)c2c(=O)n(-c3cccc(OC)c3)c3ccccc3c12 [Compound 17a, 2-Methoxyethyl 6-(3-methoxyphenyl)-2,4-dimethyl-5-oxo-5,6-dihydrobenzo[c][2,7]naphthyridine-1-carboxylate] | the same as or more effect of cilnidipine | no Ca2+ antagonism |  | 
9 | Cc1nc(C)c2c(=O)[nH]c3ccccc3c2c1C(=O)O [Compound 14, 2,4-dimethyl-5-oxo-5,6-dihydrobenzo[c][2,7]naphthyridine-1-carboxylic acid] | the same as or more effect of cilnidipine | no Ca2+ antagonism |  | 
10 | COCCOC(=O)c1c(C)nc(C)c(C(=O)O)c1-c1ccccc1[N+](=O)[O-] [Compound 6, 5-((2-methoxyethoxy)carbonyl)-2,6-dimethyl-4-(2-nitrophenyl)nicotinic acid] | the same as or more effect of cilnidipine | no Ca2+ antagonism |  | 
11 | COCCOC(=O)c1c(C)nc(C)c(C(=O)NCCCc2ccncc2)c1-c1ccccc1[N+](=O)[O-] [Compound 4f, 2-Methoxyethyl 2,6-dimethyl-4-(2-nitrophenyl)-5-((3-(pyridin-4-yl)propyl)carbamoyl)nicotinate] | the same as or more effect of cilnidipine | no Ca2+ antagonism |  | suppressive effect on aging that is the same as cilnidipine
12 | COCCOC(=O)C1=C(C)NC(C)=C(C(=O)Nc2cccc(C(=O)O)c2)C1c1ccccc1 (stereo not drawn) [Compound 31, 3-(5-((2-methoxyethoxy)carbonyl)-2,6-dimethyl-4-phenyl-1,4-dihydropyridine-3-carboxamido)benzoic acid] | the same as or more effect of cilnidipine |  |  | 
13 | COCCOC(=O)C1=C(C)NC(C)=C(C(=O)O)C1c1ccccc1[N+](=O)[O-] (stereo not drawn) [Compound 2, 5-((2-methoxyethoxy)carbonyl)-2,6-dimethyl-4-(2-nitrophenyl)-1,4-dihydropyridine-3-carboxylic acid] | the same as or more effect of cilnidipine | no Ca2+ antagonism |  | suppressive effect on aging that is the same as cilnidipine
14 | COCCOC(=O)c1c(C)nc(C)c2c(=O)n(Cc3ccccc3)c3ccccc3c12 [Compound 10b, 2-Methoxyethyl 6-benzyl-2,4-dimethyl-5-oxo-5,6-dihydrobenzo[c][2,7]naphthyridine-1-carboxylate] | the same as or more effect of cilnidipine |  |  | 
15 | COCCOC(=O)C1=C(C)NC(C)=C(C(=O)NCc2ccccc2)C1c1cccc([N+](=O)[O-])c1 (stereo not drawn) [Compound 20a, 2-Methoxyethyl 5-(benzylcarbamoyl)-2,6-dimethyl-4-(3-nitrophenyl)-1,4-dihydropyridine-3-carboxylate] | the same as or more effect of cilnidipine | no Ca2+ antagonism |  | 
16 | COCCOC(=O)c1c(C)nc(C)c2c(=O)n(C)c3ccccc3c12 [Compound 10a, 2-Methoxyethyl 2,4,6-trimethyl-5-oxo-5,6-dihydrobenzo[c][2,7]naphthyridine-1-carboxylate] | the same as or more effect of cilnidipine |  |  | 
17 | COCCOC(=O)c1c(C)nc(C)c(C(=O)Nc2cccc(C(=O)O)c2)c1-c1ccccc1 [Compound 25, 3-(5-((2-methoxyethoxy)carbonyl)-2,6-dimethyl-4-phenylnicotinamido)benzoic acid] | the same as or more effect of cilnidipine |  |  | 
